From patent US20160100573A1, “QUATERNARY ORGANOSILICON SURFACTANTS, METHODS OF MAKING SAME AND APPLICATIONS CONTAINING THE SAME” (Momentive Performance Materials Inc., priority 2014, published 2016)

What was measured:
[1] = Dispersibility / cloud point of surfactant in glyphosate-isopropyl amine 480 g/L formulation; format: physicochemical; details: for Cloud Point (50 g/L): surfactant at 5% in glyphosate 480 g/L formulation
Description: Aqueous glyphosate-isopropyl amine (480 g/L) formulations containing 5% of either Comparative-B or the composition of the present invention were prepared and evaluated for dispersion properties. The formulations were visually observed for clarity at 20-22° C., and if clear to hazy, the cloud point was also measured.
Cloud point was determined by placing 15 mL of formulation in a 20 dram vial containing a digital thermometer, and slowly heating the mixture on a magnetic stirrer/hot plate. The temperature at which the solution became opaque was recorded as the cloud point.

[2] = Spreading of surfactant solutions on polystyrene surface (spread diameter after 30 seconds); format: physicochemical; set-up: unit not given here
Description: Spreading was determined using between 0.1% and 0.4% (actives) surfactant. Solutions were prepared in Milli-Pore water (deionized) where a 10 μl, drop was placed on a polystyrene surface (Petri-dish) and the spread diameter determined after 30 seconds.

[3] = tested on: Barnyardgrass (Echinochloa crus-galli); test: Effect of adjuvant on uptake of 14C-glyphosate isopropylamine salt into Barnyardgrass; format: in vivo
Description: In one other embodiment herein the quaternary organosilicon surfactant composition of the present invention is such that the foliar uptake of various agricultural chemicals is faster for applications containing the quaternary organosilicon having the general formula (I) than that for equivalent applications containing a tallow amine ethoxylate.
Uptake of ^14C-glyphosate (herbicide) into Barnyardgrass (Echinochloa crus-galli) was determined at 2 and 24 hours after treatment (HAT) according to the method described by Gaskin et al. (Gaskin, R. E.; Stevens, P. J. G. 1992. Pestic. Sci. 38: 185-192.), to establish the impact of surfactant on the speed of uptake. Uptake was determined on adaxial surface of youngest fully expanded leaf; plant at 4 leaf stage, ca 10 cm tall.

[4] = Impact of cosurfactant on spreading of QC-1A on polystyrene surface; format: physicochemical; details: 0.2 wt % QC-1A, 0 wt % cosurfactant
Description: Spreading was determined using 0.2% (actives) total surfactant solutions, where a […] was placed on a polystyrene surface and the spread diameter determined after 30 seconds. The ratio of QC-1A to Cosurfactant was varied to determine the potential for synergistic or antagonistic effects from interaction between the two surfactants. The spread results (Actual) for each set were compared to a predicted value (weighted average) based on a linear relationship between QC-1A and the Cosurfactant.

[5] = Aqueous surface tension by Wilhelmy Plate method (Kruss Tensiometer); format: physicochemical; details: ~22° C.; for CMC: 0.005M NaCl
Description: The aqueous surface tension of the various surfactants was determined by the Wilhelmy Plate method using a sand-blasted platinum blade as the sensor. Measurements were made using a Kruss surface Tensiometer. Surfactant solutions were prepared between 0.00001% and 1 wt % in 0.005M NaCl at ambient temperatures (˜22° C.).

[6] = 0.1 wt % surfactant (actives) in deionized water
[7] = 0.2 wt % surfactant (actives) in deionized water
[8] = 0.4 wt % surfactant (actives) in deionized water
[9] = 1.00E+00 weight % surfactant in 0.005M NaCl
[10] = 1.00E-01 weight % surfactant in 0.005M NaCl
[11] = 1.00E-02 weight % surfactant in 0.005M NaCl
[12] = 1.00E-03 weight % surfactant in 0.005M NaCl
[13] = 1.00E-04 weight % surfactant in 0.005M NaCl
[14] = 1.00E-05 weight % surfactant in 0.005M NaCl
[15] = 3.00E-03 weight % surfactant in 0.005M NaCl

Row | Compound | Cloud Point (50 g/L) [1] | Spread diameter [2, 6] | Spread diameter [2, 7] | Spread diameter [2, 8] | CMC [5] [wt %] | Surface Tension [5, 9] [mN/m] | Surface Tension [5, 10] [mN/m] | Surface Tension [5, 11] [mN/m] | Surface Tension [5, 12] [mN/m] | Surface Tension [5, 13] [mN/m] | Surface Tension [5, 14] [mN/m] | Surface Tension [5, 15] [mN/m] | also measured
1 | C[N+](C)(CC(O)CO)CC(O)COCCC[Si](C)(C)CC[Si](C)(C)C (stereo not drawn) [QC-2] | >95 °C | 10 | 23 | 40 |  |  |  |  |  |  |  |  | 
2 | C[N+](C)(CCCO)CC(O)COCCC[Si](C)(C)CC[Si](C)(C)C (stereo not drawn) [QC-1] | >95 °C | 13 | 33 | 47 |  |  |  |  |  |  |  |  | Glyphosate uptake relative to TAE-2 ([3]; 2 HAT, even at a 4x lower use rate): significantly enhances glyphosate uptake; Uptake % of 14C-glyphosate ([3]; adjuvant 0.05 % w/v, 2 HAT): 40.1 d %; Uptake % of 14C-glyphosate ([3]; adjuvant 0.05 % w/v, 24 HAT): 57.6 be %; Uptake % of 14C-glyphosate ([3]; adjuvant 0.1 % w/v, 2 HAT): 34.8 e %; Uptake % of 14C-glyphosate ([3]; adjuvant 0.1 % w/v, 24 HAT): 56.2 c %; Uptake % of 14C-glyphosate ([3]; adjuvant 0.2 % w/v, 2 HAT): 36.2 de %; Uptake % of 14C-glyphosate ([3]; adjuvant 0.2 % w/v, 24 HAT): 61.6 b %
3 | C[N+](C)(CCCO)CC(O)COCCC[Si](C)(C)CC[Si](C)(C)C (stereo not drawn) [QC-1A] |  |  |  |  |  |  |  |  |  |  |  |  | Spread Diameter (Actual) [4]: 48 mm; Spread Diameter (Predicted) ([4]; weighted average): 48 mm
4 | COCCOCCOCCOCCOCCOCCOCCOCCOCCC[Si](C)(C)CC[Si](C)(C)C [Comparative-A, (CH3)3—Si—CH2CH2Si(CH3)2CH2CH2CH2O(CH2CH2O)8CH3] |  | 43 | 54 |  | 0.005 | 23.7 | 24.4 | 25.4 | 34.8 | 48.7 | 62.4 | 30.1 | 
5 | (CH3)3—Si—O—Si(CH3)(Z)—OS i(CH3)3 Where Z=—CH2CH2CH2O(CH2CH2O)8CH3 [Comparative-B] | Cloudy at 20° C.^a. |  |  |  | 0.01 | 20.6 | 20.7 | 21.5 | 34.2 | 45.1 | 52.9 | 27.0 | Dispersibility in the glyphosate formulation (visual) ([1]; 5% surfactant in glyphosate-isopropyl amine 480 g/L, 20-22° C.): insoluble in the glyphosate formulation
6 | CCCC[N+](C)(C)CC(O)COCCC[Si](C)(C)CC[Si](C)(C)C (stereo not drawn) [QC-3] | Hazy at 20 °C | 14 | 23 | 36 |  |  |  |  |  |  |  |  | 
7 | C[N+](C)(CCCO)CC(O)COCCC[Si](C)(O[Si](C)(C)C)O[Si](C)(C)C (stereo not drawn) [TSQ-1] |  | 15 | 30 |  | 0.009 | 19.9 | 20.2 | 22.3 | 38.3 | 55.6 | 66.7 | 28.7 | 
